Results on 15 molecules are retold here after article PMC8151276, “An Integrated Approach toward NanoBRET Tracers for Analysis of GPCR Ligand Engagement” (Molecules, 2021).

Assay [1] concerns the target T1, ADRA2A (Homo sapiens, UniProt P08913).
T1 construct: purchased Promega (in-house HiBiT-GPCR construct library, NanoBRET)
T1 sequence (P08913 1-465): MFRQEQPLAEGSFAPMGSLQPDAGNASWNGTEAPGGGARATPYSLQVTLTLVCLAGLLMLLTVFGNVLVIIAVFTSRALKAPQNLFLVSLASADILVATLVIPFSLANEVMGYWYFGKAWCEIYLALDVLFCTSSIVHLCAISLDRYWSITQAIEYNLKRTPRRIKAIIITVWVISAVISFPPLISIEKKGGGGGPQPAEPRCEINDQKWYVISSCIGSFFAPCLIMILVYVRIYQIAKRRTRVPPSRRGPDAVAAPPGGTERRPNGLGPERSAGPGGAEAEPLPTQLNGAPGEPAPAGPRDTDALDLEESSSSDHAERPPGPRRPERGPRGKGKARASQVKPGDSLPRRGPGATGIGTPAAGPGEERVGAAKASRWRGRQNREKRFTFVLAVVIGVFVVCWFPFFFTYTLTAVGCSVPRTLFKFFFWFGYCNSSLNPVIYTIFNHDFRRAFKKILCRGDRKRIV
Description: NanoBRET screen HiBiT-ADRA2A in HEK293. It counts as binding. The protocol: (§1) Each tracer candidate was screened across the entire library of HiBiT-GPCR constructs using NanoBRET as the detection modality. As depicted in Figure 4A, the specificity of interactions was evaluated through decrease in BRET due to competitive displacement of a bound tracer by excess parental compound. Each tracer was analyzed for binding to each HiBiT-GPCR fusion in the absence and in the presence of competing parental compound. Briefly, HEK293 cells were transfected with HiBiT-GPCR constructs diluted into promoterless DNA to reduce expression and maximize translocation to the cell surface. Each tracer candidate was then screened at concentrations of 1 μM and 0.1 μM across cells expressing these fusions. Cells were treated for 1.5 h with tracer either alone or in the presence of 20 μM competing parental compound (i.e., control). BRET was measured upon addition of purified LgBiT and subsequent complementation with HiBiT genetically fused to a GPCR. The specificity of interactions was assessed through a decrease in BRET signal due to competitive displacement of the bound tracer. To further gauge the robustness of these interactions, the fold response over the control (i.e., BRETtracer/BRETcontrol) was calculated. We chose a 1.5-fold response, which translates to ≥7-fold signal over noise as the minimal threshold required to score an interaction as positive.
(§2) HiBiT-GPCR DNA constructs were diluted in 10 mM Tris pH 8 to a final concentration of 0.01 μg/μL, arrayed in 96-well plates and stored at −20 °C. For transfection, HEK293 cells were suspended in Opti-MEM (without phenol red) supplemented with 2% fetal bovine serum (Seradigm) and 100 units/mL penicillin–streptomycin (Gibco) at a final concentration of 220,000 cells/mL and dispensed into white 96-well plates at 90 μL/well. Subsequent transfections and screens were carried using an Agilent Bravo Automated Liquid Handling Platform. First, the 96-well HiBiT DNA arrays were diluted 25-fold in Opti-MEM (without serum or phenol red) to a final concentration of 0.0004 μg/μL and 20 μL of the diluted DNAs were transferred into new 96-well plates. Next, promoterless carrier DNA (1 μg/μL) was diluted 25-fold (0.04 μg/μL) and then dispensed into the diluted arrays at 20 μL/well. Following brief mixing, Viafect transfection reagent (Promega) diluted 16-fold into Opti-MEM was dispensed into the plates at 40 μL/well. After mixing by pipetting, plates were incubated for 10 min on the pipetting station deck. The DNA-transfection reagent complexes were then added to plates containing cells. To facilitate the screen, 10 μL of DNA-transfection reagent complexes were added in duplicates to the top 4 and bottom 4 rows, resulting in two identical 48-well arrays per plate. Plates with transfected cells were incubated for 18–20 h at 37 °C/5% CO2. A screen of each tracer across the entire library using two different concentrations requires duplicate plates of transfected cells. Depending on the number of tracers being screened, transfections can be scaled up using the same ratios. The next day, for each tracer, four 20× screening solutions in tracer dilution buffer (Promega) were prepared: two duplicates at final concentration of 20 μM and two duplicates at a final concentration of 2 μM. […] The four resulting solutions were diluted 4-fold in Opti-MEM without serum or phenol red to generate 5× solutions (5 µM and 0.5 µM tracer +/− 100 μM competing compound). To screen the library, a BioTek MultiFlo FX liquid dispenser was used to dispense 22.5 µL of tracer solution to the top 4 rows and 22.5 µL tracer + competing compound solution to the 4 bottom rows. Plates were briefly mixed on an orbital shaker and incubated for 1.5 h at room temperature. […] Plates were briefly mixed on an orbital shaker and incubated for 15 min to allow complementation.

Assay [2] deals with T2, DRD4 (Homo sapiens, UniProt P21917).
T2 construct: purchased Promega (in-house HiBiT-GPCR construct library, NanoBRET)
T2 sequence (P21917 1-419): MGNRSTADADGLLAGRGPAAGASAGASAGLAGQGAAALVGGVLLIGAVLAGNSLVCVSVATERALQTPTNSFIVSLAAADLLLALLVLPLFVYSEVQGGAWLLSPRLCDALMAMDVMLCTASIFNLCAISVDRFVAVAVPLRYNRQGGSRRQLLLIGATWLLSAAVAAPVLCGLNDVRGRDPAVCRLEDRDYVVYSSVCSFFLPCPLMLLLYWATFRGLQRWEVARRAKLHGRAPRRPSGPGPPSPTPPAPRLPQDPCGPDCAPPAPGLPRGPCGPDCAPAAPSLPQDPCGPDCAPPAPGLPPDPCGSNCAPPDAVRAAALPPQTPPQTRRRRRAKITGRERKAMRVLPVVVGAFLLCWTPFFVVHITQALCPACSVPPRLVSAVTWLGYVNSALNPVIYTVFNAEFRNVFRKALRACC
The assay can be described thus: NanoBRET screen HiBiT-DRD4 in HEK293. It counts as binding. The procedure:
as §1, §2

The structures appear in SMILES notation.

With `O=C(CCOCCOCCOCCOCCNC(=O)CCc1ccc2n1[B-](F)(F)[N+]1=C(c3ccc[nH]3)C=CC1=C2)NCCCN1CCN(C2=Nc3ccccc3Oc3ccc(Cl)cc32)CC1` [Loxapine-a-2-NB590], the “NanoBRET Fold Response” value in assay [1] (ADRA2A, tracer 0.1μM) is given as 0.99; in assay [1] (ADRA2A, tracer 1μM), 1.02; in assay [2] (DRD4, tracer 0.1μM), 1.57; in assay [2] (DRD4, tracer 1μM), 2.56.

With `CCCn1c(=O)c2[nH]c(-c3ccc(OCC(=O)NCCNC(=O)CCOCCNC(=O)c4ccc(CNC(=O)CCc5ccc6n5[B-](F)(F)[N+]5=C(c7ccc[nH]7)C=CC5=C6)cc4)cc3)nc2n(CCC)c1=O` [XAC-3-NB590], the “NanoBRET Fold Response” value worked out at 0.97 in assay [1] (ADRA2A, tracer 0.1μM); 1.11 in assay [1] (ADRA2A, tracer 1μM); 1.27 in assay [2] (DRD4, tracer 0.1μM); 0.82 in assay [2] (DRD4, tracer 1μM).

As for `CN(C)CCC=C1c2ccccc2CCc2ccc(C(=O)NCCNC(=O)CCOCCOCCOCCOCCNC(=O)CCc3ccc4n3[B-](F)(F)[N+]3=C(c5ccc[nH]5)C=CC3=C4)cc21` [Amitriptyline-a-2-NB590], the “NanoBRET Fold Response” value was 1.03 in assay [1] (tracer at 0.1μM), 1.12 in assay [1] (tracer at 1μM), 1.07 in assay [2] (tracer at 0.1μM) and 1.09 in assay [2] (tracer at 1μM).

Take `COc1ccccc1N1CCN(CCCCN2C(=O)c3ccc(CNC(=O)CCOCCOCCOCCOCCNC(=O)CCc4ccc5n4[B-](F)(F)[N+]4=C(c6ccc[nH]6)C=CC4=C5)cc3C2=O)CC1` [NAN-190-2-NB590]: the “NanoBRET Fold Response” value worked out at 2.17 in assay [1] (ADRA2A, tracer 0.1μM); 3.08 in assay [1] (ADRA2A, tracer 1μM); 1.09 in assay [2] (DRD4, tracer 0.1μM); 1.80 in assay [2] (DRD4, tracer 1μM).

For `O=C(CCc1ccc2n1[B-](F)(F)[N+]1=C(c3ccc[nH]3)C=CC1=C2)NCc1ccc(C(=O)NCCOCCOCCNCC(O)COc2cccc3ccccc23)cc1` (stereo not shown) [Propranolol-3-NB590], the “NanoBRET Fold Response” value turned out to be 1.04 in assay [1] (ADRA2A, 0.1μM); 1.06 in assay [1] (ADRA2A, 1μM); 0.84 in assay [2] (DRD4, 0.1μM); 0.99 in assay [2] (DRD4, 1μM).

As to `COc1ccccc1N1CCN(CCCCN2C(=O)c3ccc(CNC(=O)CCOCCNC(=O)c4ccc(CNC(=O)CCc5ccc6n5[B-](F)(F)[N+]5=C(c7ccc[nH]7)C=CC5=C6)cc4)cc3C2=O)CC1` [NAN-190-3-NB590], the “NanoBRET Fold Response” value in assay [1] (ADRA2A, tracer 0.1μM) is listed as 2.11; in assay [1] (ADRA2A, tracer 1μM), 2.92; in assay [2] (DRD4, tracer 0.1μM), 1.23; in assay [2] (DRD4, tracer 1μM), 1.92.

For the molecule `O=C(CCc1ccc2n1[B-](F)(F)[N+]1=C(c3ccc[nH]3)C=CC1=C2)NCc1ccc(C(=O)NCCOCCC(=O)N[C@@H]2CC[C@@]3(O)[C@H]4Cc5ccc(O)c6c5[C@@]3(CCN4CC3CC3)[C@H]2O6)cc1` [Naltrexone-3-NB590], the “NanoBRET Fold Response” value in assay [1] (ADRA2A, tracer 0.1μM) came to 1.12; in assay [1] (ADRA2A, tracer 1μM), 0.92; in assay [2] (DRD4, tracer 0.1μM) it was 0.82; in assay [2] (DRD4, tracer 1μM), 1.11.

Consider `CCOC(=O)c1cc(C#N)c(N2CCC(C(=O)NS(=O)(=O)Cc3ccccc3/C=C/C(=O)NCCNC(=O)CCc3ccc4n3[B-](F)(F)[N+]3=C(c5ccc[nH]5)C=CC3=C4)CC2)nc1C` [AZD1283-1-NB590], for which the “NanoBRET Fold Response” value stood at 1.04 in assay [1] (ADRA2A, 0.1μM); 1.13 in assay [1] (ADRA2A, 1μM); 1.05 in assay [2] (DRD4, 0.1μM); 1.13 in assay [2] (DRD4, 1μM).

In the case of `COc1ccc2[nH]c(-c3ccc(CNC(=O)CCOCCOCCOCCOCCNC(=O)CCc4ccc5n4[B-](F)(F)[N+]4=C(c6ccc[nH]6)C=CC4=C5)cc3)c(CCNC(C)=O)c2n1` [AzomelatoninICO9-2-NB590], the “NanoBRET Fold Response” value in assay [1] (0.1μM tracer) came out at 1.01; in assay [1] (1μM tracer), 1.06; in assay [2] (0.1μM tracer), 0.59; in assay [2] (1μM tracer), 0.88.

`CC(C)N(CC[C@H](c1ccccc1)c1cc(CCNC(=O)CCOCCOCCOCCOCCNC(=O)CCc2ccc3n2[B-](F)(F)[N+]2=C(c4ccc[nH]4)C=CC2=C3)ccc1O)C(C)C` [Tolterodine-2-NB590]: the “NanoBRET Fold Response” value is 1.00 in assay [1] (ADRA2A, tracer 0.1μM); 1.02 in assay [1] (ADRA2A, tracer 1μM); 0.99 in assay [2] (DRD4, tracer 0.1μM); 0.96 in assay [2] (DRD4, tracer 1μM).

On to `N#CN=C(NCCCOc1cccc(CN2CCCCC2)c1)NCCNC(=O)CCOCCOCCOCCOCCNC(=O)CCc1ccc2n1[B-](F)(F)[N+]1=C(c3ccc[nH]3)C=CC1=C2` [Aminopotentidine-2-NB590], for which the “NanoBRET Fold Response” value in assay [1] (ADRA2A, tracer 0.1μM) is 1.04; in assay [1] (ADRA2A, tracer 1μM), 1.26; in assay [2] (DRD4, tracer 0.1μM), 1.00; in assay [2] (DRD4, tracer 1μM), 0.98.

For the molecule `COc1ccc2c(n1)c(CCNC(C)=O)cn2CCNC(=O)CCc1ccc2n1[B-](F)(F)[N+]1=C(c3ccc[nH]3)C=CC1=C2` [Azamelatonin-1-NB590], the “NanoBRET Fold Response” value is 1.08 in assay [1] (0.1μM tracer), 1.01 in assay [1] (1μM tracer), 0.77 in assay [2] (0.1μM tracer) and 1.03 in assay [2] (1μM tracer).

Consider `CN(CCC=C1c2ccccc2CCc2ccccc21)C(=O)CCOCCOCCOCCOCCNC(=O)CCc1ccc2n1[B-](F)(F)[N+]1=C(c3ccc[nH]3)C=CC1=C2` [Amitriptyline-e-2-NB590], for which the “NanoBRET Fold Response” value in assay [1] (tracer at 1μM) amounted to 1.09; in assay [2] (tracer at 1μM) it was 1.01.

Turning to `N#CN/C(=N\CCNC(=O)c1ccc(N)cc1)NCCCOc1cccc(CN2CCCCC2)c1` [Aminopotentidine (unmodified)], the “NanoBRET Fold Response” value in assay [1] (ADRA2A, other tracers/Aminopotentidine (unmodified), 0.1μM) is reported as 1.01; in assay [1] (ADRA2A, other tracers/Aminopotentidine (unmodified), 1μM) it was 1.67; in assay [2] (DRD4, other tracers/Aminopotentidine (unmodified), 0.1μM), 1.24; in assay [2] (DRD4, other tracers/Aminopotentidine (unmodified), 1μM) it was 1.17.

Consider `CC(C)N(CC[C@H](c1ccccc1)c1cc(CCNC(=O)c2ccc(CNC(=O)CCc3ccc4n3[B-](F)(F)[N+]3=C(c5ccc[nH]5)C=CC3=C4)cc2)ccc1O)C(C)C` [Tolterodine-BZ-NB590], for which the “NanoBRET Fold Response” value in assay [1] (ADRA2A, tracer 0.1μM) came out at 1.08; in assay [1] (ADRA2A, tracer 1μM) it was 1.07; in assay [2] (DRD4, tracer 0.1μM), 0.94; in assay [2] (DRD4, tracer 1μM), 1.09.
